This is an account of results in patent publication US10005776B2, “Compounds as NIK inhibitors” (Janssen Pharmaceutica NV, priority 2014, dated 2018).

For orientation: EC50 means the concentration giving half of the maximal effect. A high value points to a need for much substance. The IC50 is the point on the concentration scale where inhibition reaches its midpoint.

Assay [1] relates to L-363 cells. Description: Antiproliferative activity on L-363 cells (CellTiter-Glo). Format: cell-based, human. The note with it: 72 hr treatment, averaged values. Here is the method: (§1) Determination of Antiproliferative Activity on LP-1, L-363 and JJN-3 Cells
(§2) All compounds tested were dissolved in DMSO and further dilutions were made in culture medium. Final DMSO concentration was 0.3% (v/v) in cell proliferation assays. Viability was assessed using CellTiter-Glo cell viability assay kit (Promega). The human LP-1, L-363 and JJN-3 cells (DSMZ) were cultured in RPMI 1640 medium supplemented with 2 mM L-glutamine, and 10% fetal calf serum (PAA). Cells were routinely kept as suspension cells at 37° C. in a humidified 5% CO2 atmosphere. Cells were passaged at a seeding density of 0.2×10^6/ml twice a week. Cells were seeded in black tissue culture treated 96-well plates (Perkin Elmer). Densities used for plating ranged from 2,000 to 6,000 cells per well in a total volume of 75 μl medium. After twenty four hours, drugs and/or solvents were added (25 μl) to a final volume of 100 μl. Following 72 hr of treatment plates were removed from the incubator and allowed to equilibrate to room temperature for approx 10 min. 100 μl CellTiter-Glo reagent was added to each well that was then covered (Perkin Elmer Topseal) and shaken on plate shaker for 10 min. Luminescence was measured on a HTS Topcount (Perkin Elmer). Within an experiment, the results for each treatment were the mean of 2 replicate wells. For initial screening purposes, compounds were tested using a 9 point dilution curve (serial 1:3 dilutions). For each experiment, controls (containing no drug) and a blank incubation (containing cells read at the time of compound addition) were run in parallel. The blank value was subtracted from all control and sample values. For each sample, the mean value for cell growth (in relative light units) was expressed as a percentage of the mean value for cell growth of the control.

Assay [2] has as its system LP-1 cells. Description: Antiproliferative activity on LP-1 cells (CellTiter-Glo). Type of assay: cell-based, human. Conditions: 72 hr treatment, averaged values. Here is the method: as §1, §2
(Cellular ATP, detected with luciferase, serves as a proxy for viable cell number.)

The target in assay [3] is Recombinant Human NF-kappaB-Inducing Kinase (NIK/MAP3K14) (Homo sapiens, UniProt Q99558). Description: Inhibition of auto-phosphorylation of recombinant human NIK/MAP3K14 (AlphaScreen). Type of assay: biochemical. The note with it: 25 microM ATP, 0.2 nM GST-tagged NIK/MAP3K14, 1 h at 25° C.; averaged over all measurements on all batches; read-out: Alpha-Screen IC50. Here is the method:
Inhibition of Auto-Phosphorylation of Recombinant Human NF-kappaB-Inducing Kinase (NIK/MAP3K14) Activity (AlphaScreen®)
NIK/MAP3K14 auto-phosphorylation activity was measured using the AlphaScreen® (αscreen) format (Perkin Elmer). All compounds tested were dissolved in dimethyl sulfoxide (DMSO) and further dilutions were made in assay buffer. Final DMSO concentration was 1% (v/v) in assays. Assay buffer was 50 mM Tris pH 7.5 containing 1 mM EGTA (ethylene glycol tetraacetic acid), 1 mM DTT (dithiothreitol), 0.1 mM Na3VO4, 5 mM MgCl2, 0.01% Tween® 20. Assays were carried out in 384 well Alphaplates (Perkin Elmer). Incubations consisted of compound, 25 microM Adenosine-5′-triphosphate (ATP), and 0.2 nM NIK/MAP3K14. Incubations were initiated by addition of GST-tagged NIK/MAP3K14 enzyme, carried out for 1 h at 25° C. and terminated by addition of stop buffer containing anti-phospho-IKK Ser176/180 antibody. Protein A Acceptor and Glutathione-Donor beads were added before reading using an EnVision® Multilabel Plate Reader (Perkin Elmer). Signal obtained in the wells containing blank samples was subtracted from all other wells and IC50's were determined by fitting a sigmoidal curve to % inhibition of control versus Log10 compound concentration.

Assay [4] deals with JJN-3 cells. Description: Antiproliferative activity on JJN-3 cells (CellTiter-Glo). Conditions: 72 hr treatment, averaged values. Format: cell-based, human. How it is done: as §1, §2

Sequence of Recombinant Human NF-kappaB-Inducing Kinase (NIK/MAP3K14) (Q99558 whole entry): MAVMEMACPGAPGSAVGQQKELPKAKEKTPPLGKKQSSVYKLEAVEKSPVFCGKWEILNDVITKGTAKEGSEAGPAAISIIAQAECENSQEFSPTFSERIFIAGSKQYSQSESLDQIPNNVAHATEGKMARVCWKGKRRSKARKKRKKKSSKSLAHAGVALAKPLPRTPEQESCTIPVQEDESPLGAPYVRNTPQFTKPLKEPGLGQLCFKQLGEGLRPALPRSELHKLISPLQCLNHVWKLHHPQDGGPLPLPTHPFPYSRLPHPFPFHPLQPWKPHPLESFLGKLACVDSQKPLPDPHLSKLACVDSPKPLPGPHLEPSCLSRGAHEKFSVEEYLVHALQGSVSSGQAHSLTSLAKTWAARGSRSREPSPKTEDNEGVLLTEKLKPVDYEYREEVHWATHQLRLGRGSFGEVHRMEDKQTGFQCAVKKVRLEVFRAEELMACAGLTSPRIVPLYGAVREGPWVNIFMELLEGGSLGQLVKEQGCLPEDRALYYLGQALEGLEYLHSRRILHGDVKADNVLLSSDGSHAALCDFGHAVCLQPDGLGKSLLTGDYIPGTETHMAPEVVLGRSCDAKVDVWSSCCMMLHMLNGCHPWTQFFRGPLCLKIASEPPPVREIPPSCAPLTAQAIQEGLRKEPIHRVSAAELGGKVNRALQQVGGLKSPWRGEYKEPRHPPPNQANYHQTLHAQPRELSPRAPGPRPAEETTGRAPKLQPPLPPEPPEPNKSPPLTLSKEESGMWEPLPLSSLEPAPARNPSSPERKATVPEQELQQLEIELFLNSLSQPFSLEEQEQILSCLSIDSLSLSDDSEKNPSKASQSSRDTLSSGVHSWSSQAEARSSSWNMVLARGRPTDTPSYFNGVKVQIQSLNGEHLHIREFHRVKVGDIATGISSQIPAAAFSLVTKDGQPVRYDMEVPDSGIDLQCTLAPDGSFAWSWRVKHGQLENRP

For `Nc1ncc(F)c(-c2c[nH]c3cnc(C#CC4(O)CCCC4)cc23)n1` [Compound 20], the half-maximal effective concentration (EC50) turned out to be 126 nM in assay [1] (Homo sapiens, L-363, 72 h); 1120 nM in assay [2] (Homo sapiens, LP-1, 72 h); 152 nM in assay [4] (Homo sapiens, JJN-3, 72 h). The half-maximal inhibitory concentration (IC50) in assay [3] came out at 2 nM.
On the same counts, the results for `CC(C)N1CCC(n2cc(-c3nc(N)ncc3F)c3cc(C#CC(C)(O)C4CC4)ncc32)C1` (centres unmarked) [Compound 3] are 56 nM, 147 nM, 133 nM and 155 nM.
Regarding `CCCCN1CCC(n2cc(-c3nc(N)ncc3F)c3cc(C#CC(C)(O)C4CC4)ncc32)C1` (single isomer, unassigned) [Compound 26], the concentration for a half-maximal effect (EC50) in assay [1] (Homo sapiens, L-363, 72 h) was found to be 63 nM; in assay [2] (Homo sapiens, LP-1, 72 h), 114 nM; in assay [4] (Homo sapiens, JJN-3, 72 h) it was 101 nM. Further, the half-inhibitory concentration (IC50) in assay [3] stood at 18 nM.
Turning to `Cc1cc(C(C)(O)C#Cc2cc3c(-c4nc(N)ncc4F)c[nH]c3cn2)no1` (centres unmarked) [Compound 18], the EC50 in assay [1] (Homo sapiens, L-363, 72 h) is 1090 nM; in assay [2] (Homo sapiens, LP-1, 72 h), 5030 nM; in assay [4] (Homo sapiens, JJN-3, 72 h), 1190 nM. In assay [3], the IC50 was 10 nM.
Consider `Cc1cc(C(C)(O)C#Cc2cc3c(-c4nc(N)ncc4F)c[nH]c3cn2)no1` (single isomer, unassigned) [Compound 32], for which the concentration giving a half-maximal response (EC50) in assay [1] worked out at 5500 nM; in assay [2], 19600 nM; in assay [4], 4340 nM. Besides, the concentration for half-maximal inhibition (IC50) in assay [3] was determined as 379 nM.
